“Also recorded” adds a separate entry of the source.
Legend:
[1] = test system: RA chip (HUVECs, RA patient derived FLS, RA patient monocyte-derived macrophage); test: cytokine secretion profile of the RA chip with versus without TNF-α priming; assay type: cell-based, human
Source text: To study blood and synovial cells from RA patients to understand the biological basis for response/non-response to TNFi, disclosed herein is a microfluidics-based 3D vascularized organ-on-a-chip model of RA. The disclosed microphysiological system integrates key features that replicate in vivo synovial architecture and monitors dynamic interactions between the critical cell types of RA, such as monocyte, monocyte-derived macrophage, and fibroblast-like synoviocytes (FLS), in real time with live-cell imaging. The RA chip is compartmentalized into three functional regions, which are partitioned by regularly spaced trapezoid micropillars that confine cell-embedded hydrogels, by balancing surface tension and capillary forces, to mimic the native in vivo tissue architecture of synovitis. The different tissue regions are a central sinus that is lined with human umbilical vein endothelial cells (HUVECs), a synovial sublining, which contains vessels extending from the central sinus, and a synovial lining region (outer ring) connected with four medium reservoirs for medium supply. HUVECs and RA patient derived FLS, and RA patient monocyte-derived macrophage are infused into different regions sequentially and cultured for 7 days to establish a microvessel network and a layered structure of synovium.
With this established synovium structure on-chip, first profiled is the cytokine environment of the engineered RA chip at two conditions (with TNF-α priming versus without) to validate the inflammation status of the RA chip.
Following the established inflammation in the RA chip, work pivoted to whether the RA inflammation can be maintained on-chip for a long period. The RA chip cultured for over 4 days and quantified inflammatory cytokines secretion with IL-6 and GM-CSF as indicator. […] It was previously shown that pre-treatment circulating type I IFN (T1IFN) activity predicts non-response to TNFi (Wampler-Muskardin et al., Front Immunol, 2020). Remarkably, no patient with a ratio >1.3 achieved remission or low disease activity. […]

monocytes in the RA chip = test: monocyte migration in the RA chip, live imaging microscopy; assay type: cell-based, human; conditions: RA chip primed with TNF-α versus not primed
Source text: Following the established inflammation in the RA chip, work pivoted to whether the RA inflammation can be maintained on-chip for a long period. The RA chip cultured for over 4 days and quantified inflammatory cytokines secretion with IL-6 and GM-CSF as indicator. […] It was previously shown that pre-treatment circulating type I IFN (T1IFN) activity predicts non-response to TNFi (Wampler-Muskardin et al., Front Immunol, 2020). Remarkably, no patient with a ratio >1.3 achieved remission or low disease activity. It is also possible to use single cell gene expression analysis to study blood monocytes in RA patients with high vs. low IFN-β-to-α activity ratio. […] Further on, the behaviors of monocytes in the RA chip are investigated by infusing monocytes into the central sinus of the chip, from which monocytes can distribute into the microvessel network and extravasate out of vessel. […] In addition, the effect of circulating T1IFNs on monocyte activation in the RA chip was studied.
The biomimetic Synovium-on-a-Chip (FIG. 4A) contains two areas to mimic the outer layer (lining layer) and an inner layer (sublining layer) of the synovium. […]
To confirm the role of TNF-α in regulating the RA inflammation, monitored first is monocyte dynamics in the RA device which is primed with or without TNF-α. […]

TNF-α
secretion of IL-6 and GM-CSF ([1]; RA chip cultured for over 4 days after transient TNF-α treatment): generally decreased | secretion of cytokines (IL-6, GM-CSF, IL-8, MCP-1, MCP-3, MIP-3α) ([1]; RA chip with TNF-α priming versus without): increased secretion | inflammatory environment of the RA chip ([1]; primed with TNF-α at an interval of 2-3 days): maintained over 7 days | monocyte migration dynamics (migration velocity and distance) (monocytes in the RA chip): promoted monocyte migration dynamics; also recorded: Enhanced migration behaviors

Reference: US20260103665A1, “Synovium-on-a-Chip” (New York University, priority 2022, published 2026)
